Where two headings read alike, the source gives them in different places.
Legend:
[1] = system: HIV-1 NL4-3; experiment: Anti-HIV assay: HIV-1 NL4-3 replication in MT4 cells, p24 ELISA; assay type: cell-based
[2] = Cytotoxicity to MT4 cells, CellTiter-Glo Luminescent Cell Viability Assay; assay type: cell-based; settings: human
[3] = Human immunodeficiency virus 1, NL43, MT4, 96 h, read-out: anti-HIV (NL4-3) EC90
[4] = read-out: anti-HIV (NL4-3) EC90, concentration that inhibited HIV-1 replication by 90%, MT4 cells, 4-day post infection, p24 ELISA

Row | Molecule | EC90 [1, 3] [nM] | EC90 ([1]; Human immunodeficiency virus 1, NL43, MT4, read-out: anti-HIV EC90) [nM] | IC50 [2] [nM] | EC90 [1, 4] [nM]
1 | C=C(C)[C@@]12C[C@@H](COC(=O)c3ccccc3)[C@@]34OC5(O[C@@H]1[C@@H]3[C@@H]1O[C@]1(CO)[C@@H](O)[C@@]1(O)[C@H]4[C@H]([C@H](C)[C@@H]1OC(=O)c1ccccc1)[C@H](C)CCCCCC[C@H]5O)O2 [Compound 1, gnidimacrin] | 0.41 | < 1 | 2800 | –
2 | C=C(C)[C@]12C[C@@H](C)[C@@]34OC5(CCCCCCC[C@H](C)[C@H]6[C@H](C)[C@H](OC(=O)c7ccccc7)[C@@](O)([C@H](O)[C@@]7(CO)O[C@H]7[C@H]3[C@H]1O5)[C@@H]64)O2 [Compound 2, pimelea factor P2] | 1.4 | – | 3200 | –
3 | C=C(C)[C@]12C[C@@H](COC(=O)c3ccccc3)[C@@]34OC5(CCCCCCC[C@@H](C)[C@H]6[C@H](C)C(=O)[C@@](O)([C@H](O)[C@@]7(CO)O[C@H]7[C@H]3[C@H]1O5)[C@@H]64)O2 [Compound 3, wikstroelide F] | – | – | – | 1.7
4 | C=C(C)[C@]12C[C@@H](COC(C)=O)[C@@]34O[C@]5(O[C@@H]1[C@@H]3[C@@H]1O[C@]1(CO)[C@@H](O)[C@@]1(O)[C@H]4[C@H]([C@H](C)[C@@H]1OC(=O)c1ccccc1)[C@H](C)CCCCCC[C@H]5O)O2 [Compound 4, Stelleralide A] | – | – | – | 0.4
5 | C=C(C)[C@]12C[C@@H](COC(=O)c3ccccc3)[C@]34OC5(CCCCCCC[C@H](C)[C@@H]6[C@@H]3[C@]3(O[C@]6(C)OC3=O)[C@H](O)[C@@]3(CO)O[C@H]3[C@H]4[C@H]1O5)O2 [Compound 6, Stelleralide C] | – | – | – | 91
6 | C=C(C)[C@]12C[C@@H](C)[C@@]34O[C@](CCCCCCCCC)(O[C@@H]1[C@@H]3[C@@H]1O[C@]1(CO)[C@@H](O)[C@]1(O)C(=O)C(C)=C[C@H]14)O2 [Compound 7, simplexin] | 8 | – | 22500 | –
7 | C=C(C)[C@]12C[C@@H](C)[C@@]34O[C@](/C=C/C=C/CCCCCCCCC)(O[C@@H]1[C@@H]3[C@@H]1O[C@]1(CO)[C@@H](O)[C@]1(O)C(=O)C(C)=C[C@H]14)O2 [Compound 8, huratoxin] | – | – | – | 5.8
8 | Stelleralide B [Compound 5] | – | – | – | 1.6
